For one series, the target named is T1, stromelysin (MMP-3) (Homo sapiens, UniProt P08254).
T1 construct: enzymatic activity of the catalytic domains of human stromelysin and of neutrophil collagenase; made in house
The experiment in a line: Enzyme inhibition of the catalytic domain of human stromelysin (fluorogenic substrate). Conditions: 15 min preincubation, pH=6.5, fluorescence 328 nm (ex)/393 nm (em). It counts as biochemical. Summed up:
(§1)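 Recombinant catalytic domains of MMP-3 or MMP-8 were preincubated 15 min with compound in Tris/NaCl/CaCl2/PIPES buffer with 0.05% Brij, pH 6.5. Reaction was started with Mca-Pro-Leu-Gly-Leu-Dpa-Ala-Arg-NH2 and followed by fluorescence (328/393 nm) as rate per min; IC50 was the concentration giving 50% inhibition.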

The target of series [1] is T2, neutrophil collagenase (MMP-8) (Homo sapiens, UniProt P22894).
T2 construct: enzymatic activity of the catalytic domains of human stromelysin and of neutrophil collagenase; made in house
T2 sequence (P22894 100-262 limits assumed): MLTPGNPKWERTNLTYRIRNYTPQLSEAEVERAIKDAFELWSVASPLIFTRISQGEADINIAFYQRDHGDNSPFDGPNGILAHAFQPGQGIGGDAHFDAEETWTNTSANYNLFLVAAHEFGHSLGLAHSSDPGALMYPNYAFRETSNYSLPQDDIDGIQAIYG
The experiment in a line: Enzyme inhibition of the catalytic domain of neutrophil collagenase (fluorogenic substrate). It counts as biochemical. Particulars: 15 min preincubation, pH=6.5, fluorescence 328 nm (ex)/393 nm (em). Summed up:
as §1

T1 sequence (P08254 100-272 limits assumed): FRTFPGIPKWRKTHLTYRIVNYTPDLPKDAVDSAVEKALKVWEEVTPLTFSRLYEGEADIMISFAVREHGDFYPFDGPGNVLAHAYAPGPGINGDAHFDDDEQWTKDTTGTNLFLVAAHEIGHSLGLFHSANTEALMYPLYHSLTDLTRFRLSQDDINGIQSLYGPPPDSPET

In the case of `O=C(O)[C@H](CCCN1Cc2ccccc2C1=O)NS(=O)(=O)c1ccc(-c2ccc(Cl)cc2)cc1` [Example 34], the melting point (commonly the temperature of the solid-liquid transition) was in the range of 213 to 215 °C. Half-maximal inhibition at stromelysin (MMP-3) (IC50) required 4 nM. For the same compound, it took 2 nM to reach half-maximal inhibition in series [1] (IC50).
`O=C(O)C(CCN1C(=O)c2ccccc2C1=O)NS(=O)(=O)c1ccc(-c2ccc(Cl)cc2)cc1` (racemic) [Example 29] displayed a melting point of 238 °C. Besides, half-maximal inhibition on stromelysin (MMP-3) (IC50) required 6 nM. Further, the concentration for half-maximal inhibition (IC50) (as a rule, the concentration at which inhibition is half-maximal) in series [1] amounted to 3 nM.
On the same counts, the results for `O=C(O)[C@H](CCN1C(=O)c2ccccc2C1=O)NS(=O)(=O)c1ccc(-c2ccccc2)cc1` [Example 28] are 167 °C, 40 nM and 6 nM.
For the compound `O=C(O)[C@@H](CCCN1C(=O)c2ccccc2C1=O)NS(=O)(=O)c1ccc(-c2ccc(Cl)cc2)cc1` [Example 6, 2-(2R)-(4-Chlorobiphenylsulfonylamino)-5-phthalimidoyl-pentanoic acid], the melting point is 178 °C. The compound further had an IC50 against stromelysin (MMP-3) of 5 nM. The compound further returned an IC50 in series [1] of 2 nM.
On the same counts, the results for `O=C(O)C(CCCN1C(=O)c2ccccc2C1=O)NS(=O)(=O)c1ccc(-c2ccc(Cl)cc2)cc1` (racemic) [Example 31] are 132 °C, 5 nM and 2 nM.
On the same counts, the results for `O=C(O)[C@H](CCCN1C(=O)c2ccccc2C1=O)NS(=O)(=O)c1ccc(-c2ccc(Cl)cc2)cc1` [Example 32] are 179 °C, 6 nM and 2 nM.
On to `O=C(O)C(CCCN1C(=O)c2ccccc2C1=O)NS(=O)(=O)c1ccc(-c2ccccc2)cc1` (racemic) [Example 30], for which the melting point was determined as 168 °C. The compound further had an IC50 against stromelysin (MMP-3) of 30 nM. In series [1], inhibition was half-maximal at 5 nM (IC50).
On the same counts, the results for `Cc1cc(C)nc(NCCC[C@H](NS(=O)(=O)c2ccc(-c3ccc(Cl)cc3)cc2)C(=O)O)n1` [Example 170] are 177 to 179 °C, 20 nM and 10 nM.

The values are drawn from patent US6355673B1, “Substituted diaminocarboxylic acids” (Aventis Pharma Deutschland GmbH, priority 1997, dated 2002).
